Reference: ChEMBL document CHEMBL1156292, “Zwittermicin A: synthesis of analogs and structure-activity studies” (2010)
≈ marks a conversion by molar mass, not a printed value.

Experiments:
Format in all cases: functional
Candida albicans [1] = test: Antifungal activity against Candida albicans 96-489 by disk diffusion assay
Nakaseomyces glabratus = test: Antifungal activity against Candida glabrata by disk diffusion assay
Candida albicans [2] = test: Antifungal activity against Candida albicans UCDFR1 by disk diffusion assay
Candida albicans [3] = test: Antifungal activity against Candida albicans ATCC 14503 by disk diffusion assay
Pichia kudriavzevii = test: Antifungal activity against Candida krusei by disk diffusion assay
[4] = tested on: Pectobacterium carotovorum; test: Antibacterial activity against Erwinia carotovora by disk diffusion assay
Erwinia amylovora = test: Antibacterial activity against Erwinia amylovora by disk diffusion assay
Phytophthora infestans = test: Antifungal activity against Phytophthora infestans by disk diffusion assay

SMILES	MIC (Candida albicans [1]) [µg/mL]	MIC (Nakaseomyces glabratus) [µg/mL]	MIC (Candida albicans [2]) [µg/mL]	MIC (Candida albicans [3]) [µg/mL]	MIC (Pichia kudriavzevii) [µg/mL]	MIC [4] [µg/mL]	MIC (Erwinia amylovora) [µg/mL]	MIC (Phytophthora infestans) [µg/mL]
N[C@H](CO)[C@@H](O)C[C@H](O)[C@@H](N)CO	> 128	> 128	> 128	> 128	> 128	–	–	–
N[C@H](CO)[C@@H](O)C[C@H](O)[C@H](N)CO	> 128	> 128	> 128	> 128	> 128	> 128	> 128	> 32
NC(=O)NC[C@H](NC(=O)[C@@H](O)[C@H](O)[C@H](N)[C@H](O)C[C@@H](O)[C@@H](N)CO)C(N)=O	> 128	> 128	> 128	> 128	> 128	> 128	> 128	> 32
NC(=O)NC[C@H](NC(=O)[C@H](O)[C@@H](O)[C@@H](N)[C@@H](O)C[C@@H](O)[C@@H](N)CO)C(N)=O	> 128	> 128	> 128	> 128	> 128	> 128	> 128	> 32
NC(=O)NC[C@@H](NC(=O)[C@@H](O)[C@H](O)[C@H](N)[C@H](O)C[C@@H](O)[C@@H](N)CO)C(N)=O [ENT-ZWITTERMICIN A]	> 128	> 128	> 128	> 128	> 128	> 128	> 128	> 32
N[C@@H](CO)[C@@H](O)C[C@H](O)[C@@H](N)CO	> 128	> 128	> 128	> 128	> 128	–	–	–
NC(=O)NC[C@H](NC(=O)[C@@H](O)[C@H](O)[C@H](N)CO)C(N)=O	> 128	> 128	> 128	> 128	> 128	> 128	> 128	> 32
N[C@@H](CO)[C@H](O)C[C@@H](O)[C@@H](N)CO	> 128	> 128	> 128	> 128	> 128	–	–	–
NC(=O)NC[C@H](NC(=O)[C@H](O)[C@@H](O)[C@@H](N)[C@@H](O)C[C@H](O)[C@H](N)CO)C(N)=O	55.7 (≈ 141 µM)	59.5 (≈ 150 µM)	> 128	> 128	> 128	22.2 (≈ 56 µM)	18.8 (≈ 47.4 µM)	> 32
N[C@@H](CO)[C@H](O)C[C@H](O)[C@@H](N)CO	> 128	> 128	> 128	> 128	> 128	–	–	–
N[C@H](CO)[C@H](O)C[C@H](O)[C@@H](N)CO	> 128	> 128	> 128	> 128	> 128	–	–	–
N[C@H](CO)[C@H](O)C[C@H](O)[C@H](N)CO	> 128	> 128	> 128	> 128	> 128	–	–	–
NC(=O)NC[C@@H](NC(=O)[C@H](O)[C@@H](O)[C@@H](N)[C@@H](O)C[C@@H](O)[C@@H](N)CO)C(N)=O	> 128	> 128	> 128	> 128	> 128	> 128	> 128	> 32
NC(=O)NC[C@@H](NC(=O)[C@@H](O)[C@H](O)[C@H](N)CO)C(N)=O	> 128	> 128	> 128	> 128	> 128	> 128	> 128	> 32
